Source: patent publication US8148392B2, “2-indolyl imidazo [4,5-d] phenanthroline derivatives and their use in the treatment of cancer” (Lorus Therapeutics Inc., priority 2005, dated 2012)
Entries after “also recorded” stand apart in the source; their conditions may differ.

Columns and labels:
[1] = tested on: HT-29 cells; experiment: Effect of exogenous metals on growth inhibition of HT-29 cells (XTT); format: cell-based, human; conditions: HT-29, 5 days; for effect of exogenous zinc on growth inhibition: ZnCl2 (100 μM)
Experimental: To determine whether metal chelation is involved in the growth inhibitory activity of compounds of Formula I, exogenous metals (ZnCl2, FeCl2.4H2O, FeCl3.4H2O, MgCl2, at 100 μM) were incubated with HT-29 cells, simultaneously with control vehicle DMSO, compound 3 (5 μM), or compound 13 (25 μM), for 5 days. […] Growth inhibition by compound 13 is predicted to occur through a different mechanism than compound 3.
To determine whether chelation of copper is involved in the growth inhibitory activity of compounds of Formula I, HT-29 cells were incubated with up to 5 μM of compound 3, in the presence or absence of 25 μM CuSO4.5H20 for 5 days.
To determine whether metal chelation is involved in the growth inhibitory activity of compound 3, various concentrations of exogenous metals were incubated with HT-29 cells, simultaneously with various concentrations of compound 3, for 5 days. The exogenous metals tested were: ZnCl2 (zinc), CuSO4.5H20 (copper), FeCl2 (iron II), FeCl3.4H20 (iron III), MgCl2 (magnesium), and CaCl2.2H20 (calcium). HT-29 cells (4×10^3/well) in 100 μL volume of the growth medium were seeded in 96-well cell culture plates and incubated overnight at 37° C. The medium was removed and replaced with a total volume of 100 μl growth medium containing concentrations of metal ions as shown in FIG. 5 with compound 3 or 0.1% DMSO vehicle control. After incubation of the cells at 37° C. for 5 days, cell viability was quantitated using the XTT (sodium 3′-[1-(phenylamino-carbonyl)-3,4-tetrazolium}-bis (4-methoxy-6-nitro) benzene sulfonic acid hydrate) calorimetric assay (Roche Applied Science, Penzberg, Germany). XTT labeling reagent (1 mg/mL) was mixed with electron-coupling reagent, following the manufacturer's instructions, and 50 μl of the mixture was added directly to the cells cultured in 100 μl growth medium. The plates were further incubated at 37° C. for 4 hours and the absorbance of each well was measured by a multi-well spectrophotometer (Bio-Tek Instruments Inc.) at 460 nm. The data were adjusted relative to the blank, and were expressed as % of cell growth compared to the DMSO control.
To determine the ability of compounds 5 and 7 to chelate metals in cells, exogenous metals were added to HT-29 cells, simultaneously with various concentrations of compounds 5 and 7. Briefly, HT-29 cells were treated with various concentrations compounds 5 and 7, plus or minus copper (25 μM CuSO4.5H20) or zinc (100 μM of ZnCl2), for 5 days. Cell viability was determined by XTT assay. The effects of copper and zinc on growth inhibition of HT-29 cells are shown in FIG. 6A for compound 5 and in FIG. 6B for compound 7.
Effect of metal ion supplements on compound 3-mediated cell growth inhibition of HT-29 cells was examined by XTT cell proliferation assay.

[2] = tested on: human lung NCI-H460 cells; experiment: Large-cell lung carcinoma NCI-H460 xenograft model, tumour growth; format: in vivo, CD-1 female nude mice; conditions: for tumour size and weight: Lutrol (i.p.), lipid-based (i.v.) or water-based (i.p.) formulations
Experimental: The ability of compounds of Formula I to inhibit large-cell lung tumour growth in vivo was tested by determining the efficacy of compound 3 in a xenograft model as described below. Compound 3 was tested as a lipid-based formulation having the following composition: distearoylphosphatidylethanolamine-polyethylene glycol 2000 (DSPE-PEG/5% mole) and egg phosphatidylcoline (ePC/95% mole). The formulation was prepared as follows: Stock solutions of compound 3 and lipid (ePC and DSPE-PEG) were prepared in DMF. Specific volumes of the stock solutions of compound 3 and lipid were then mixed in order to achieve a final lipid concentration of 25 mg/mL (ePC:DSPE-PEG=95:5 (mol %) and a compound 3 to total lipid ratio of 1:10 (w/w). The mixture was stirred for four hours, thoroughly dried under nitrogen and left overnight under vacuum. HEPES buffer saline (HBS 0.01 M, pH=7.4) warmed to 60° C. was then added in order to rehydrate the dried film. The solutions were vortexed, stirred for 48 hours at room temperature and sonicated for two and half hours. The formulation was then centrifuged at 1000 rpm for 5 minutes to remove any free compound 3.
CD-1 female nude mice (6-7 weeks, 7 mice per treatment group) were injected […] with human lung NCI-H460 cells (3×10^6 cells in 0.1 ml PBS) subcutaneously. Treatment of the mice with vehicle or compound 3 was initiated 5 days post-inoculation (size of tumours=20-40 mm^3) for 7-day cycles of five days followed by a 2 day break for the duration of the experiment (35 days). Mice were treated with 80 mg/kg/d for the first week followed by 40 mg/kg/d until the end of the experiment. The size of the tumours was measured over the course of the experiment using calipers, and the weight of the tumours was measured after the animals were sacrificed.
The ability of compounds 3, 5, and 7 to inhibit large-cell lung carcinoma cell growth in vivo was tested in the mouse xenograft model as described in Example 27. The compounds were tested as Lutrol formulations (administered i.p.), lipid-based formulations micelles (administered i.v.), or water-based formulations (administered i.p.). The vehicle controls included Lutrol control (administered i.p.), lipid micelle control (administered i.v.), and water control (administered i.p.). Lutrol formulations contained 15% Lutrol and 10% DMSO. The composition of the lipid-based formulations and preparation of same was as described in Example 27 above.

[3] = 25 μM CuSO4, low concentrations of compound (less than 2 μM)

Compound	effect of iron(III), magnesium and calcium on growth inhibition [1]	effect of exogenous copper on growth inhibition ([1]; 25 μM CuSO4, high concentrations of compound (>2.5 μM))	effect of exogenous copper on growth inhibition [1, 3]	effect of exogenous zinc on growth inhibition [1]	effect of excess iron and magnesium on growth inhibition ([1]; metals at 100 μM, compound 3 5 μM)	tumour size and weight [2]	tumour growth (size and weight) ([2]; lipid-based formulation, 80 mg/kg/d first week then 40 mg/kg/d, 35 days)
Cc1[nH]c2ccccc2c1-c1nc2c3cccnc3c3ncccc3c2[nH]1 [Compound 3]	essentially no effect	significantly enhanced the activity	Copper impaired the growth inhibitory activities	completely impaired; also recorded: impaired the growth inhibitory activities; also recorded: completely reversed by zinc only	no effect	able to decrease the size (FIG. 16A) and weight (FIG. 16B) of tumours	able to inhibit large-cell lung tumour growth
Cc1[nH]c2ccc(F)cc2c1-c1nc2c3cccnc3c3ncccc3c2[nH]1 [Compound 7]	–	–	copper impaired the activity only at low concentrations	zinc impaired the growth inhibitory activities	–	able to decrease the size (FIG. 16A) and weight (FIG. 16B) of tumours	–
